# Where two headings read alike, the source gives them in different places.
# Legend:
# Assay type in all cases: biochemical
# Human Tyk2 kinase domain = Human Tyk2 kinase domain (Homo sapiens (Human), UniProt P29597); assay: Tyk2 Inhibition Assay (Example A, Omnia kinase fluorescence peptide substrate assay); details: TYK2 Enzyme IC50 1 mM ATP, averaged IC50 ranges
# Excerpt: (§1) The assays described in Examples A, B, C and D for the determination of Tyk2, JAK1, JAK2 and JAK3 kinase activity, respectively, utilized the Omnia® Kinase fluorescence peptide substrate-based technology (Invitrogen). The specific components of the assay mixture are described in Examples A, B, C and D. In these assays, Mg^2+ is chelated upon phosphorylation of the Omnia peptide by the kinase to form a bridge between the chelation-enhanced fluorophore Sox and the phosphate, resulting in an increase in fluorescence emission at 485 nm when excited at […]. The reactions were therefore read at excitation 360 nm and emission was measured at 485 nm every 50 seconds for 45 minutes using a PerkinElmer EnVision Multilabel Plate Reader.
# (§2) The final buffer conditions for Tyk2, JAK1, JAK2, and JAK3 assays were as follows: 25 mM HEPES, pH 7.4, 10 mM MgCl2, 0.01% Triton X-100 and 1 mM DTT.
# (§3) Two-μL aliquots of these were transferred to a fresh plate for a ten-fold intermediate dilution with assay buffer. Five-μL aliquots of the diluted compounds were then transferred to 20-μL of assay mixtures described in Examples A, B, C and D for a final concentration of DMSO of 2%. […] For each plate, percent of control (POC) values were calculated for each well according to the following equation: […]
# (§4) IC50's were estimated from the POC's using a standard 4-parameter logistic model:
# (§5) The IC50 is defined as the concentration of inhibitor at which the POC equals 50 for the fitted curve.
# Compounds of Formula I were screened for their ability to inhibit Tyk2 using the general enzyme inhibition assay method, in which the assay mixture contained 1 mM ATP, 8 μM Omnia Y12 peptide (Catalog # IVGN KPZ3121C; Invitrogen Corporation, Carlsbad, Calif.) and 1 nM Tyk2 in a total volume of 25 μL. Human Tyk2 kinase domain, comprising amino acids 886 to 1187 with 10 additional histidine residues (histidine tag) on the carboxy terminus, was expressed and purified from bacculovirus in-house at Array BioPharma Inc. (Boulder, Colo.). The histidine tag was cleaved after purification using standard conditions.
# JAK2 = JAK2 (Homo sapiens (Human), UniProt O60674); assay: JAK2 Inhibition Assay (Example C, Omnia kinase fluorescence peptide substrate assay); details: JAK2 Enzyme IC50 1 mM ATP, averaged IC50 ranges
# Chain of JAK2 (O60674 whole entry): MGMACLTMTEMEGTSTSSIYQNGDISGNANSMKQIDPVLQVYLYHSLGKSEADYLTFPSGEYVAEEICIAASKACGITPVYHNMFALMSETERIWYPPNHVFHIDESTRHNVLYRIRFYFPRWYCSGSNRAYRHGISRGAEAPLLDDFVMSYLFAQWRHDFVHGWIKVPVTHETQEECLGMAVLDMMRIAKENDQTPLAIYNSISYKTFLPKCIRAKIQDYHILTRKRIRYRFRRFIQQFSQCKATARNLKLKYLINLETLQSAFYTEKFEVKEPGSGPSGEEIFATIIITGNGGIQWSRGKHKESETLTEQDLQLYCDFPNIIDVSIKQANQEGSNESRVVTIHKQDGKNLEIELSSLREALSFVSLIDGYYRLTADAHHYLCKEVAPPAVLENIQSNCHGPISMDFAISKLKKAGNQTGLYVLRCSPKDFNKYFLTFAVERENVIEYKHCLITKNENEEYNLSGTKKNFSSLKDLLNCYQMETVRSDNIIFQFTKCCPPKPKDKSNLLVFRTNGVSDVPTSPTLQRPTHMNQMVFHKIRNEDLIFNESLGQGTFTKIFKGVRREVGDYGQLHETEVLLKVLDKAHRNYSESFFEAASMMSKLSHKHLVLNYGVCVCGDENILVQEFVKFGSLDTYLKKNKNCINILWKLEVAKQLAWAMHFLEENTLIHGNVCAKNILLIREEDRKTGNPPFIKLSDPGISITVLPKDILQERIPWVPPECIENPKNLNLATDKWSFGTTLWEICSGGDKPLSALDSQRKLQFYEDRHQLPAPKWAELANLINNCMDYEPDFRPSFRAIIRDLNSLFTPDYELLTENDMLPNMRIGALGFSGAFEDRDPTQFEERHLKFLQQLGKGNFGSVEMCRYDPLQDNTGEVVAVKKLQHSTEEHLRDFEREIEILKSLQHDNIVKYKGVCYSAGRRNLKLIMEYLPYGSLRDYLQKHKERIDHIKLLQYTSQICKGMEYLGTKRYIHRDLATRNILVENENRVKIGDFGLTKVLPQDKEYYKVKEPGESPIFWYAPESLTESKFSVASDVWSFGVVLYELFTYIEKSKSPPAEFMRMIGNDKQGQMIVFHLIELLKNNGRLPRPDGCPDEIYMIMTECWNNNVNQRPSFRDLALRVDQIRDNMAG
# Excerpt: as §1, §2, §3, §4, §5
# (§6) Compounds of Formula I were screened for their ability to inhibit JAK2 using the general enzyme inhibition assay method, in which the assay mixture contained 1 mM ATP, 10 μM Omnia® Y7 peptide (Catalog # IVGN KNZ3071C, Invitrogen Corporation, Carlsbad, Calif.) and 4 nM JAK2 in a total volume of 25 μL. JAK2 was purchased from Invitrogen Corporation, Carlsbad, Calif. (catalog # IVGN PV4288).
# JAK1 = JAK1 (Homo sapiens (Human), UniProt P23458); assay: JAK1 Inhibition Assay (Example B, Omnia kinase fluorescence peptide substrate assay)
# Chain of JAK1 (P23458 whole entry): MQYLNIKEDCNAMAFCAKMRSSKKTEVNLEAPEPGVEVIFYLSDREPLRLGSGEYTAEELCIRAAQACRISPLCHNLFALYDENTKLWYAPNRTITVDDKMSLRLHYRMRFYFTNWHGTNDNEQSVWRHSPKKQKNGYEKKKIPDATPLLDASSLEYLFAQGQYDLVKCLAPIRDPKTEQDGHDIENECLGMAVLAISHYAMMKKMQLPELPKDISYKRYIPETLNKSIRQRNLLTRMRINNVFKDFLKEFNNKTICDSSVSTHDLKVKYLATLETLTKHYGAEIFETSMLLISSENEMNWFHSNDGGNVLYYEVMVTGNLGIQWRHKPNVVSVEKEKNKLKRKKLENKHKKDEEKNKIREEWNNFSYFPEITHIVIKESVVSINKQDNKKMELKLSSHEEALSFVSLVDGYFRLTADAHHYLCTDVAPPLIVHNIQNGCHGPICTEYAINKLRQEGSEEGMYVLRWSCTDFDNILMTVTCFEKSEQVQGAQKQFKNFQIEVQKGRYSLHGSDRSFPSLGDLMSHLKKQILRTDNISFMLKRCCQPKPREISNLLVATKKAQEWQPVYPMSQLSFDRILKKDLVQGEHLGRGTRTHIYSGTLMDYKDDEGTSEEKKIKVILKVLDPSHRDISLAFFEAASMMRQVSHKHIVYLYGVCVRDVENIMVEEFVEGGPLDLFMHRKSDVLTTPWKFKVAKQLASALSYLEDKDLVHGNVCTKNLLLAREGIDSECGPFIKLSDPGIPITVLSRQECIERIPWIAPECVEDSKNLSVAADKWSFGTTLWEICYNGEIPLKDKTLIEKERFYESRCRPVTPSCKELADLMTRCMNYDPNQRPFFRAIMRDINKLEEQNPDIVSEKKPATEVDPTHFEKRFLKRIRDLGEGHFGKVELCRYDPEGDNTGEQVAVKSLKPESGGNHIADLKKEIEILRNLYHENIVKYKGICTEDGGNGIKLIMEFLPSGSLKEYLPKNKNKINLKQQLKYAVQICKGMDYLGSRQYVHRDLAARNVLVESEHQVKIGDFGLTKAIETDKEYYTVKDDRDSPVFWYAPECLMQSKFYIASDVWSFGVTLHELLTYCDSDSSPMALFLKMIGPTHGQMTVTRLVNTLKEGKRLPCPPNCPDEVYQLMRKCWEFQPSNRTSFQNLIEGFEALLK
# Excerpt: as §1, §2, §3, §4, §5
# as §6, with “JAK1” for “JAK2”, “8” for “10”, “Y12” for “Y7”, “KPZ3121C;” for “KNZ3071C,”, “12.5” for “4”, “PV4775).” for “PV4288).”
# JAK3 = JAK3 (Homo sapiens (Human), UniProt P52333); assay: JAK3 Inhibition Assay (Example D, Omnia kinase fluorescence peptide substrate assay)
# Chain of JAK3 (P52333 whole entry): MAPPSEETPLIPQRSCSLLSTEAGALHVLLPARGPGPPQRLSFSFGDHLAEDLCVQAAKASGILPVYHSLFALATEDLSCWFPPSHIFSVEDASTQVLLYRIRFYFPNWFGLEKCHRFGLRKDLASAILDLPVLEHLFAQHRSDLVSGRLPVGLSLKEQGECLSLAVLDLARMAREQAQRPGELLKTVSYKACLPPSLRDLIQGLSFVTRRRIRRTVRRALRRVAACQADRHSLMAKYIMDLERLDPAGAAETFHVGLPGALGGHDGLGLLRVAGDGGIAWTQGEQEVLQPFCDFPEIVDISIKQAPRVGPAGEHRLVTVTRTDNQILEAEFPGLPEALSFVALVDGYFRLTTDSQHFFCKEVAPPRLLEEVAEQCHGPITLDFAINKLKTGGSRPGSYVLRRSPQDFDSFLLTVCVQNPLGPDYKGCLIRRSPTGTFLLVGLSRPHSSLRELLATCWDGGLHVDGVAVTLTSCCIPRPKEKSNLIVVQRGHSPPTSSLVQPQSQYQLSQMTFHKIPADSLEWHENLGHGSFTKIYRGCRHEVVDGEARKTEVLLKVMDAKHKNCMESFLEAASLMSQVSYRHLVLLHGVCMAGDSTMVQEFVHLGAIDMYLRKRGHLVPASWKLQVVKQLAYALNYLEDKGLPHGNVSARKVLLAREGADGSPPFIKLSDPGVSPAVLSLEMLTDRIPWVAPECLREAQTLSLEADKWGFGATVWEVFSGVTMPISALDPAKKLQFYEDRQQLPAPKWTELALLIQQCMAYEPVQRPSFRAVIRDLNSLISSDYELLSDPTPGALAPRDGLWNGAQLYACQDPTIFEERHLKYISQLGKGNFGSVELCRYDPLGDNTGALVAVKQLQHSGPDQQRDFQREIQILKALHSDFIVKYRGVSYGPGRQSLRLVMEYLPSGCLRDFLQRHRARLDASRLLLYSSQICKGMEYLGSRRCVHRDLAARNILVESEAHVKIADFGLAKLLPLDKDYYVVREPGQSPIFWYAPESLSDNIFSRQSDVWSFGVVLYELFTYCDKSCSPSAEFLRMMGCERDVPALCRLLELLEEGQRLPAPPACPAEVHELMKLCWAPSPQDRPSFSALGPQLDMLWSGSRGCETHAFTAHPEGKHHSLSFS
# Excerpt: as §1, §2, §3, §4, §5
# as §6, with “JAK3” for “JAK2”, “2” for “4”, “PV4080).” for “PV4288).”
# [1] = JAK1 Enzyme IC50 1 mM ATP, 1 mM ATP, averaged IC50 ranges
# Chain of Human Tyk2 kinase domain (P29597 886-1187): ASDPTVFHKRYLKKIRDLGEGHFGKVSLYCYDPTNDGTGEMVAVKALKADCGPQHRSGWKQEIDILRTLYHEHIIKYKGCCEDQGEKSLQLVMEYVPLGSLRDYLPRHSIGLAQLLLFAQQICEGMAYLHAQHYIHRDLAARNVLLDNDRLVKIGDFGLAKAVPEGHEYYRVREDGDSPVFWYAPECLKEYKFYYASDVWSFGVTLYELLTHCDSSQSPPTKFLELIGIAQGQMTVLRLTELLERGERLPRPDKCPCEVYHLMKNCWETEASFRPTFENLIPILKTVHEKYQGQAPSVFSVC
SMILES,IC50 (Human Tyk2 kinase domain) [nM],IC50 (JAK2) [nM],IC50 (JAK1) [nM],IC50 (JAK3) [nM],IC50 (JAK1; [1]) [nM]
"CCC(CC)n1cc(-c2nc(-c3cnn([C@H]4C[C@H](C(=O)N(C)C)C4)c3)cn3nccc23)cn1 [Example 169, (1r,3r)-N,N-dimethyl-3-(4-(4-(1-(pentan-3-yl)-1H-pyrazol-4-yl)pyrazolo[1,5-a]pyrazin-6-yl)-1H-pyrazol-1-yl)cyclobutanecarboxamide]",100 to 1000,100 to 1000,1000 to 10000,1000 to 10000,–
"CCC(CC)n1cc(-c2nc(-c3cnn(CCCO)c3)cn3nccc23)cn1 [Example 19, 3-(4-(4-(1-(pentan-3-yl)-1H-pyrazol-4-yl)pyrazolo[1,5-a]pyrazin-6-yl)-1H-pyrazol-1-yl)propan-1-ol]",1000 to 10000,1000 to 10000,1000 to 10000,1000 to 10000,–
"CCC(CC)n1cc(-c2nc(-c3cnn(C[C@H]4CNCCO4)c3)cn3nccc23)cn1 [compound 128, (R)-2-((4-(4-(1-(pentan-3-yl)-1H-pyrazol-4-yl)pyrazolo[1,5-a]pyrazin-6-yl)-1H-pyrazol-1-yl)methyl)morpholine]",100 to 1000,100 to 1000,1000 to 10000,1000 to 10000,–
"CCC(CC)n1cc(-c2nc(-c3cnn([C@H]4CCC[C@H]4O)c3)cn3nccc23)cn1 (single isomer, unassigned) [compound 190]",100 to 1000,100 to 1000,–,1000 to 10000,1000 to 10000
"CCC[C@H](C)n1cc(-c2nc(-c3cnn(C(CO)CO)c3)cn3nccc23)cn1 [Example 82, (S)-2-(4-(4-(1-(pentan-2-yl)-1H-pyrazol-4-yl)pyrazolo[1,5-a]pyrazin-6-yl)-1H-pyrazol-1-yl)propane-1,3-diol]",100 to 1000,10 to 100,100 to 1000,1000 to 10000,–
"CCC(CC)n1cc(-c2nc(-c3cnn(C4CN(C(=O)CO)C4)c3)cn3nccc23)cn1 [compound 174, 2-hydroxy-1-(3-(4-(4-(1-(pentan-3-yl)-1H-pyrazol-4-yl)pyrazolo[1,5-a]pyrazin-6-yl)-1H-pyrazol-1-yl)azetidin-1-yl)ethanone]",10 to 100,10 to 100,100 to 1000,1000 to 10000,–
"CCC(CC)n1cc(-c2nc(-c3cnn(C4CN(C(=O)CN5CC(O)C5)C4)c3)cn3nccc23)cn1 [Example 180, 2-(3-hydroxyazetidin-1-yl)-1-(3-(4-(4-(1-(pentan-3-yl)-1H-pyrazol-4-yl)pyrazolo[1,5-a]pyrazin-6-yl)-1H-pyrazol-1-yl)azetidin-1-yl)ethanone]",100 to 1000,100 to 1000,–,1000 to 10000,1000 to 10000
"CCC(CC)n1cc(-c2nc(-c3cnn(C[C@H](O)CN(C)C)c3)cn3nccc23)cn1 [Example 99, (R)-1-(dimethylamino)-3-(4-(4-(1-(pentan-3-yl)-1H-pyrazol-4-yl)pyrazolo[1,5-a]pyrazin-6-yl)-1H-pyrazol-1-yl)propan-2-ol]",10 to 100,10 to 100,–,1000 to 10000,1000 to 10000
"CCC(CC)n1cc(-c2nc(-c3cnn(C[C@H](O)CCO)c3)cn3nccc23)cn1 (single isomer, unassigned) [compound 201]",10 to 100,10 to 100,1000 to 10000,1000 to 10000,–
"CCC(CC)n1cc(-c2nc(-c3cnn(C[C@H](O)CNC)c3)cn3nccc23)cn1 [Example 100, (R)-1-(methylamino)-3-(4-(4-(1-(pentan-3-yl)-1H-pyrazol-4-yl)pyrazolo[1,5-a]pyrazin-6-yl)-1H-pyrazol-1-yl)propan-2-ol]",10 to 100,10 to 100,–,1000 to 10000,1000 to 10000
"CCC(CC)n1cc(-c2nc(-c3cnn(C[C@H]4COCCN4)c3)cn3nccc23)cn1 [Example 30, (S)-3-((4-(4-(1-(pentan-3-yl)-1H-pyrazol-4-yl)pyrazolo[1,5-a]pyrazin-6-yl)-1H-pyrazol-1-yl)methyl)morpholine]",10 to 100,10 to 100,100 to 1000,1000 to 10000,–
"CCC(CC)n1cc(-c2nc(-c3cnn([C@@H]4CCNC[C@H]4O)c3)cn3nccc23)cn1 [Example 188, (3R,4R)-4-(4-(4-(1-(pentan-3-yl)-1H-pyrazol-4-yl)pyrazolo[1,5-a]pyrazin-6-yl)-1H-pyrazol-1-yl)piperidin-3-ol]",10 to 100,10 to 100,1000 to 10000,1000 to 10000,–
"CCC(CC)n1cc(-c2nc(-c3cnn(CCS(C)(=O)=O)c3)cn3nccc23)cn1 [Example 22, 6-(1-(2-(methylsulfonyl)ethyl)-1H-pyrazol-4-yl)-4-(1-(pentan-3-yl)-1H-pyrazol-4-yl)pyrazolo[1,5-a]pyrazine]",10 to 100,10 to 100,100 to 1000,1000 to 10000,–

# Other lines, results leading:
IC50 (Human Tyk2 kinase domain) [nM],IC50 (JAK2) [nM],IC50 (JAK1) [nM],IC50 (JAK3) [nM],IC50 (JAK1; [1]) [nM],SMILES
10 to 100,10 to 100,100 to 1000,1000 to 10000,–,"CCC(CC)n1cc(-c2nc(-c3cnn([C@H](C)[C@H](O)CO)c3)cn3nccc23)cn1 (single isomer, unassigned) [Example 90]"
10 to 100,10 to 100,100 to 1000,1000 to 10000,–,"CCC(CC)n1cc(-c2nc(-c3cnn(C4CN(C(=O)C(=O)N(C)C)C4)c3)cn3nccc23)cn1 [Example 182, N,N-dimethyl-2-oxo-2-(3-(4-(4-(1-(pentan-3-yl)-1H-pyrazol-4-yl)pyrazolo[1,5-a]pyrazin-6-yl)-1H-pyrazol-1-yl)azetidin-1-yl)acetamide]"
10 to 100,10 to 100,100 to 1000,1000 to 10000,–,"CCC(CC)n1cc(-c2nc(-c3cnn(CC4CCOCC4)c3)cn3nccc23)cn1 [Example 4, 4-(1-(pentan-3-yl)-1H-pyrazol-4-yl)-6-(1-((tetrahydro-2H-pyran-4-yl)methyl)-1H-pyrazol-4-yl)pyrazolo[1,5-a]pyrazine]"
10 to 100,10 to 100,100 to 1000,1000 to 10000,–,"CCC(CC)n1cc(-c2nc(-c3cnn(CC(O)CC(F)(F)F)c3)cn3nccc23)cn1 (stereo not drawn) [Example 111, 4,4,4-trifluoro-1-(4-(4-(1-(pentan-3-yl)-1H-pyrazol-4-yl)pyrazolo[1,5-a]pyrazin-6-yl)-1H-pyrazol-1-yl)butan-2-ol]"
10 to 100,10 to 100,1000 to 10000,1000 to 10000,–,"CCC(CC)n1cc(-c2nc(-c3cnn(CCN4CCNCC4=O)c3)cn3nccc23)cn1 [Example 147, 1-(2-(4-(4-(1-(pentan-3-yl)-1H-pyrazol-4-yl)pyrazolo[1,5-a]pyrazin-6-yl)-1H-pyrazol-1-yl)ethyl)piperazin-2-one]"
10 to 100,10 to 100,1000 to 10000,1000 to 10000,–,"CCC(CC)n1cc(-c2nc(-c3cnn(CCN4CC(F)C4)c3)cn3nccc23)cn1 [Example 138, 6-(1-(2-(3-fluoroazetidin-1-yl)ethyl)-1H-pyrazol-4-yl)-4-(1-(pentan-3-yl)-1H-pyrazol-4-yl)pyrazolo[1,5-a]pyrazine]"
10 to 100,10 to 100,–,1000 to 10000,100 to 1000,"CCC(CC)n1cc(-c2nc(-c3cnn(C[C@H](CO)N(C)C)c3)cn3nccc23)cn1 [Example 131, (R)-2-(dimethylamino)-3-(4-(4-(1-(pentan-3-yl)-1H-pyrazol-4-yl)pyrazolo[1,5-a]pyrazin-6-yl)-1H-pyrazol-1-yl)propan-1-ol]"
< 10,10 to 100,–,1000 to 10000,100 to 1000,"CCC(CC)n1cc(-c2nc(-c3cnn([C@H]4C[C@@H](O)C4)c3)cn3nccc23)cn1 [Example 119, cis-3-(4-(4-(1-(pentan-3-yl)-1H-pyrazol-4-yl)pyrazolo[1,5-a]pyrazin-6-yl)-1H-pyrazol-1-yl)cyclobutanol]"
